We go through one compound from publication PMC3148216, “A Prokaryotic S1P Lyase Degrades Extracellular S1P In Vitro and In Vivo: Implication for Treating Hyperproliferative Disorders” (PLoS ONE, 2011).

Each structure is given as a SMILES string.

This experiment addresses T1, StSPL (S1P lyase from Symbiobacterium thermophilum) (Symbiobacterium thermophilum, UniProt Q67PY4).
T1 construct: gene STH1274; full-length STH1274, C-terminal His-tag, expressed in E. coli, 507 residues, 55 kDa monomer, homodimer (110 kDa); PLP-dependent, residues of both subunits form the active site
Briefly: visible spectrum of enzyme-bound cofactor, change on substrate addition. The conditions noted are these: Schiff base with K311, covalent; S1P added; purified in PBS with 10 µM PLP. The experiment is classed as binding.

T1 sequence (Q67PY4 entry or part of it): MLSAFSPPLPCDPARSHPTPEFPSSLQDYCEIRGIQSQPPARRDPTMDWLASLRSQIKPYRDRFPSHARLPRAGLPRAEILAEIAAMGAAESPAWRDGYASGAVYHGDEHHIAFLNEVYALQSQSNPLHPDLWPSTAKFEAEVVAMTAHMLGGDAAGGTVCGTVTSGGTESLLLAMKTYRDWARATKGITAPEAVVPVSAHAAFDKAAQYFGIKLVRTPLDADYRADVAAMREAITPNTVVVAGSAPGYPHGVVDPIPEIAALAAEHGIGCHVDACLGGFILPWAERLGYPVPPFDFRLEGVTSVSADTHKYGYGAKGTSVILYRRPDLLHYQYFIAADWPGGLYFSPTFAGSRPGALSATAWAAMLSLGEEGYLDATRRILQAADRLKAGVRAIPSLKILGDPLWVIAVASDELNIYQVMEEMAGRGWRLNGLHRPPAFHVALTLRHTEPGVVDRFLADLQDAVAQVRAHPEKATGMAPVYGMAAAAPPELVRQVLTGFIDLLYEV

On to `Cc1ncc(COP(=O)(O)O)c(C=O)c1O` [PLP, pyridoxal-5′-phosphate], for which the “visible spectrum of enzyme-bound cofactor, change on substrate addition” value is listed as “recording spectrophotometric changes of the cofactor upon catalysis”.
